assay: method code SF, from DOI: 10.1021/jm201475u, PMID: 22339047; conditions: not given

logP | Structure (SMILES)
0.38 | CCCCn1ccc(=O)c(O)c1F
0.87 | O=c1cc[nH]c(C(F)(F)F)c1O
-1.32 | Cn1cc(O)c(=O)c(F)c1
0.14 | O=c1cc[nH]c(C(O)C(F)(F)F)c1O (configuration not stated)
1.7 | O=c1c(O)c(F)[nH]c(F)c1F
-0.08 | CCCn1ccc(=O)c(O)c1F
-0.45 | Cn1ccc(=O)c(O)c1C(F)(F)F
0 | Cc1[nH]cc(F)c(=O)c1O
1.35 | O=c1cc(F)[nH]c(F)c1O

More lines, now with the values behind:

Structure (SMILES) | logP
Cc1cn(C)c(F)c(O)c1=O | -0.65
CCCn1cc(O)c(=O)c(F)c1 | -0.46
CCn1ccc(=O)c(O)c1F | -0.58
CC(C)n1ccc(=O)c(O)c1F | -0.41
Cn1ccc(=O)c(O)c1F | -0.97
Cc1c(O)c(=O)c(F)cn1C | -0.8
CC(C)n1cc(O)c(=O)c(F)c1 | -0.92
CCn1cc(O)c(=O)c(F)c1 | -0.89

same assay, conditions: pH 7.4

logD | Structure (SMILES)
1.07 | Cc1[nH]c(F)c(O)c(=O)c1C
0.5 | Cc1c[nH]c(F)c(O)c1=O
0.25 | Cc1cc(=O)c(O)c(F)[nH]1
-0.21 | O=c1cc[nH]c(F)c1O
0.23 | CCc1c(O)c(=O)ccn1CC

Reference: the SangsterLogP compilation
